# In patent publication US11472798B2 (Mission Therapeutics Limited, priority 2014, dated 2022):
# Target: T1, UCHL1 (Homo sapiens, UniProt P09936)
# T1 construct: made in house; host or cells: HEK293T
# T1 sequence (P09936 1-223): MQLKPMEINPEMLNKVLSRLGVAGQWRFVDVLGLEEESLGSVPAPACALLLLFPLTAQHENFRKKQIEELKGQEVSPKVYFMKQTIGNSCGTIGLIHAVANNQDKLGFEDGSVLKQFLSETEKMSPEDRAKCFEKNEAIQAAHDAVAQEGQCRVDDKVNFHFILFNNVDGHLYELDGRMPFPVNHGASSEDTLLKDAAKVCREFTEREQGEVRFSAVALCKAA
# Experiment: UCHL1 biochemical IC50 assay (fluorescence polarisation)
# Conditions: 30 min enzyme/compound pre-incubation at room temp, read after 2 hr incubation, read-out: Activity range (UCHL1 biochemical IC50 assay)
# From the text: Biological Activity of Compounds of the Invention Abbreviations: TAMRA carboxytetramethylrhodamine PCR polymerase chain reaction PBS phosphate buffered saline EDTA ethylenediaminetetraacetic acid Tris 2-amino-2-(hydroxymethyl)-1,3-propanediol NP-40 Nonidet P-40, octylphenoxypolyethoxyethanol BSA bovine serum albumin In Vitro UCHL1 Inhibition Assay Expression and Purification of UCHL1
# The UCHL1 construct was PCR amplified and cloned into a pFLAG-CMV-6a vector (Sigma-Aldrich) with an N-terminal FLAG tag. HEK293T cells were transfected with FLAG-UCHL1 using TransIT-LT1 transfection reagent (Mirus) according to the manufacturer's instructions. Cells were harvested 40 hours after transfection. Cells were washed once with PBS and scraped in lysis buffer (50 mM Tris, pH 7.5, 150 mM NaCl, 3 mM EDTA, 0.5% NP40, 10% glycerol, 5 mM beta-mercaptoethanol, protease inhibitors (complete mini, Roche) and phosphatase inhibitors (PhosSTOP mini, Roche). Lysates were incubated for 30 min on ice and centrifuged at 1200 rpm for 10 min at 4° C. Soluble supernatant was added to FLAG affinity resin (EZview Rad ANTI-FLAG M2 affinity gel, Sigma-Aldrich) equilibrated in low salt buffer (20 mM Tris, pH 7.5, 150 mM NaCl, 0.5 mM EDTA, 5 mM beta-mercaptoethanol) and incubated at 4° C. for 3 hours rotating. The resin was spun at 2000 rpm for 2 min and the supernatant was removed. The resin was washed two times with low salt buffer and one time with high salt buffer (20 mM Tris, pH 7.5, 500 mM NaCl, 0.5 mM EDTA, 5 mM beta-mercaptoethanol, protease inhibitors (complete mini, Roche) and phosphatase inhibitors (PhosSTOP mini, Roche). To elute the bound UCHL1, elution buffer (10 mM Tris, pH 7.5, 150 mM NaCl, 0.5 mM FDTA, 10% glycerol, 0.5% NP40, 5 mM beta-mercaptoethanol, 0.15 mg/ml 3×FLAG peptide (Sigma-Aldrich)) was added to the resin and incubated at 4° C. for 2.5 hours rotating. The resin was centrifuged at 4000 rpm for 30 seconds, and the supernatant containing purified FLAG-UCHL1 was removed and stored at −80° C.
# UCHL1 Biochemical IC50 Assay
# Dilution plates were prepared at 21 times the final concentration (2100 μM for a final concentration of 100 µM) in 50% DMSO in a 96-well polypropylene V-bottom plate (Greiner #651201). A typical 8-point dilution series to be 100, 30, 10, 3, 1, 0.3, 0.1, 0.03 μM final. Reactions were performed in duplicate in black 384 well plates (small volume, Greiner 784076) in a final reaction volume of 21 μl. Either 1 μl of 50% DMSO or diluted compound was added to the plate. UCHL1 was diluted in reaction buffer (20 mM Tris, pH 7.5, 100 mM NaCl, 0.05% Tween 20, 0.5 mg/ml BSA, 5 mM—beta mercaptoethanol) to the equivalent of 0.05 μl/well and 10 μl of diluted UCHL1 was added to the compound. Enzyme and compound were incubated for 30 min at room temp. Reactions were initiated by the addition of 50 nM of TAMRA labelled peptide linked to ubiquitin via an iso-peptide bond as fluorescence polarisation substrate. Reactions were read immediately after addition of substrate and following a 2 hr incubation at room temperature. Readings were performed on a Pherastar Plus (BMG Labtech). λ Excitation 540 nm; k Emission 590 nm.
row,IC50 [nM],Compound
1,< 1000,"N#CN1CC[C@H](C(=O)Nc2cn(-c3cccc(C(F)(F)F)c3)cn2)C1 [Example 154, (S)-1-cyano-N-(1-(3-(trifluoromethyl)phenyl)-1H-imidazol-4-yl)pyrrolidine-3-carboxamide]"
2,< 1000,"N#CN1CC[C@H](C(=O)Nc2cn3cc(-c4cnco4)ccc3n2)C1 [Example 276, (S)-1-cyano-N-(6-(oxazol-5-yl)imidazo[1 ,2-a]pyridin-2-yl)pyrrolidine-3-carboxamide]"
3,< 1000,"N#CN1CC[C@H](C(=O)Nc2cc(-c3cccc4[nH]ncc34)ccn2)C1 [Example 262, (S)—N-(4-(1H-indazol-4-yl)pyridin-2-yl)-1-cyanopyrrolidine-3-carboxamide]"
4,< 1000,"COc1cc(-c2cnc(NC(=O)[C@H]3CCN(C#N)C3)s2)ccc1C#N [Example 220, (S)-1-cyano-N-(5-(4-cyano-3-methoxyphenyl)thiazol-2-yl)pyrrolidine-3-carboxamide]"
5,< 1000,"N#CN1CC[C@H](C(=O)Nc2cn(-c3ccc(C(F)(F)F)cc3)cn2)C1 [Example 153, (S)-1-cyano-N-(1-(4-(trifluoromethyl)phenyl)-1H-imidazol-4-yl)pyrrolidine-3-carboxamide]"
6,< 1000,"CS(=O)(=O)Nc1ccc(-c2cnc(NC(=O)[C@H]3CCN(C#N)C3)s2)cc1 [Example 217, (S)-1-cyano-N-(5-(4-(methylsulfonamido)phenyl)thiazol-2-yl)pyrro1idine-3-carboxamide]"
7,< 1000,"N#CN1CC[C@H](C(=O)Nc2ncc(Cc3ccccc3)s2)C1 [Example 57, (S)-N-(5-benzylthiazol-2-yl)-1-cyanopyrrolidine-3-carboxamide]"
8,< 1000,"N#Cc1cccc(-c2cnc(NC(=O)[C@H]3CCN(C#N)C3)s2)c1 [Example 117, (S)-1-cyano-N-(5-(3-cyanophenyl)thiazol-2-yl)pyrrolidine-3-carboxamide]"
9,1000 to 10000,"N#CN1CC[C@H](C(=O)Nc2cc3ccccn3n2)C1 [Example 267, (S)-1-cyano-N-(pyrazolo[1,5-a]pyridin-2-yl)pyrrolidine-3-carboxamide]"
10,< 1000,"N#CN1CCC(C(=O)Nc2ncc(CN3CCOCC3)s2)C1 (centres unmarked) [Example 140, 1-cyano-N-(5-(morpholinomethyl)thiazol-2-yl)pyrrolidine-3-carboxamide]"
11,< 1000,"COCCNC(=O)c1ccc(-n2cnc(NC(=O)[C@H]3CCN(C#N)C3)c2)cc1 [Example 158, (S)-1-cyano-N-(1-(4-((2-methoxyethyl)carbamoyl)phenyl)-1H-imidazol-4-yl)pyrrolidine-3-carboxamide]"
12,1000 to 10000,"CC(=O)Nc1ccccc1-c1cnc(NC(=O)C2CCN(C#N)C2)s1 (centres unmarked) [Example 115, N-(5-(2-acetamiclophenyl)thiazol-2-yl)-1-cyanopyrrolidine-3-carboxamide]"
13,< 1000,"N#CN1CC[C@H](C(=O)Nc2ncc(-c3cccc(-n4cccn4)c3)s2)C1 [Example 218, (S)-N-(5-(3-(1H-pyrazol-1-yl)phenyl)thiazol-2-yl)-1-cyanopyrrolidine-3-carboxamide]"
14,< 1000,"N#CN1CC[C@H](C(=O)Nc2ncc(-c3ccc(F)c(C(N)=O)c3)s2)C1 [Example 236, (S)-N-(5-(3-carbamoyl-4-fluorophenyl)thiazol-2-yl)-1-cyanopyrrolidine-3-carboxamide]"
15,1000 to 10000,"N#CN1CC[C@H](C(=O)Nc2nc3ccc(-c4cn[nH]c4)cc3s2)C1 [Example 292, (S)-N-(6-(1H-pyrazol-4-yl)benzo[d]thiazol-2-yl)-1-cyanopyrrolidine-3-carboxamide]"
16,1000 to 10000,"N#CN1C[C@@H](C(=O)Nc2ncc(-c3ccccc3)s2)[C@H](c2cccnc2)C1 (relative stereo) [Example 282, trans-1-cyano-N-(5-phenylthiazol-2-yl)-4-(pyridin-3-yl)pyrrolidine-3-carboxamide]"

row,IC50 [nM],Compound
1,< 1000,"N#CN1CC[C@H](C(=O)Nc2ncc(-c3ccnnc3)s2)C1 [Example 213, (S)-1-cyano-N-(5-(pyridazin-4-yl)thiazol-2-yl)pyrrolidine-3-carboxamide]"
2,< 1000,"CN(C)C(=O)c1cccc(-c2cnc(NC(=O)[C@H]3CCN(C#N)C3)s2)c1 [Example 235, (S)-1-cyano-N-(5-(3-(dimethylcarbamoyl)phenyl)thiazol-2-yl)pyrrolidine-3-carboxamide]"
3,< 1000,"N#CN1CC[C@H](C(=O)Nc2cn(-c3ccccc3)cn2)C1 [Example 41, (S)-1-cyano-N-(1-phenyl-1H-imidazol-4-yl)pyrrolidine-3-carboxamide]"
4,1000 to 10000,"N#CN1CC[C@@H](C(=O)Nc2ncc(N3CCCCC3)s2)C1 [Example 103, (R)-1-cyano-N-(5-(piperidin-1-yl)thiazol-2-yl)pyrrolidine-3-carboxamide]"
5,1000 to 10000,"CC1CC(C(=O)Nc2ncc(-c3ccccc3)s2)CN1C#N (mixture of isomers) [Example 88, 1-cyano-5-methyl-N-(5-phenylthiazol-2-yl)pyrrolidine-3-carboxamide]"
6,1000 to 10000,"N#CN1CCC(C(=O)Nc2cc(-c3ccccc3)ccn2)C1 (centres unmarked) [Example 31, 1-cyano-N-(4-phenylpyridin-2-yl)pyrrolidine-3-carboxamide]"
7,< 1000,"C[C@H]1[C@@H](C(=O)Nc2cc(-c3ccccc3)[nH]n2)CCN1C#N [Example 75, (2S,3S)-1-cyano-2-methyl-N-(5-phenyl-1H-pyrazol-3-yl)pyrrolidine-3-carboxamide]"
8,< 1000,"C[C@@H]1CN(C#N)C[C@H]1C(=O)Nc1ncc(-c2ccccc2)s1 [Example 82, (3S,4S)-1-cyano-4-methyl-N-(5-phenylthiazol-2-yl)pyrrolidine-3-carboxamide]"
9,< 1000,"CNC(=O)c1cc(-c2cnc(NC(=O)[C@H]3CCN(C#N)C3)s2)ccc1F [Example 231, (S)-1-cyano-N-(5-(4-fluoro-3-(methylcarbamoyl)phenyl)thiazol-2-yl) pyrrolidine-3-carboxamide]"
10,1000 to 10000,"Cn1cc(-c2ccnc(NC(=O)[C@H]3CCN(C#N)C3)c2)cn1 [Example 211, (S)-1-cyano-N-(4-(1-methyl-1H-pyrazol-4-yl)pyridin-2-yl)pyrrolidine-3-carboxamide]"
11,< 1000,"N#CN1CCC(C(=O)Nc2ncc(-c3ccc(Cl)cc3)s2)C1 (centres unmarked) [Example 4, N-(5-(4-chlorophenyl)thiazol-2-yl)-1-cyano-pyrrodine-3-carboxamide]"
12,< 1000,"Cc1oncc1-c1ccc2nc(NC(=O)[C@H]3CCN(C#N)C3)sc2c1 [Example 126, (S)-1-cyano-N-(6-(5-methylisoxazol-4-yl)benzo[d]thiazol-2-yl)pyrrolidine-3-carboxamide]"
13,< 1000,"CC[C@@H]1CN(C#N)C[C@H]1C(=O)Nc1ncc(-c2ccccc2)s1 (racemic) [Example 86, (±)-1-cyano-4-ethyl-N-(5-phenylthiazol-2-yl)pyrrolidine-3-carboxamide]"
14,1000 to 10000,"Cc1ccc2nc(NC(=O)C3CCN(C#N)C3)sc2c1 (centres unmarked) [Example 19, 1-cyano-N-(6-methylbenzo[d]thiazol-2-yl)pyrrolidine-3-carboxamide]"
15,< 1000,"C[C@H](c1ccccc1)n1cnc(NC(=O)[C@H]2CCN(C#N)C2)c1 [Example 167, (S)-1-cyano-N-(1-((R)-1-phenylethyl)-1H-imidazol-4-yl)pyrrolidine-3-carboxamide]"
16,< 1000,"N#CN1CC[C@H](C(=O)Nc2cn(-c3ccc(-c4cn[nH]c4)cc3)cn2)C1 [Example 294, (S)-N-(1-(4-(1H-pyrazol-4-yl)phenyl)-1H-imidazol-4-yl)-1-cyanopyrrolidine-3-carboxamide]"
